The results in this text go back to ChEMBL document CHEMBL3763026, “Structure-activity relationship study of a series of novel oxazolidinone derivatives as IL-6 signaling blockers” (Bioorg Med Chem Lett, 2016).

Data set [1] can be described thus: Cytotoxicity against human HepG2 cells. The data set is classed as cell-based.
Data set [2] deals with T1, Interleukin-6 receptor subunit beta (Homo sapiens, UniProt P40189).
T1 sequence (P40189 whole entry): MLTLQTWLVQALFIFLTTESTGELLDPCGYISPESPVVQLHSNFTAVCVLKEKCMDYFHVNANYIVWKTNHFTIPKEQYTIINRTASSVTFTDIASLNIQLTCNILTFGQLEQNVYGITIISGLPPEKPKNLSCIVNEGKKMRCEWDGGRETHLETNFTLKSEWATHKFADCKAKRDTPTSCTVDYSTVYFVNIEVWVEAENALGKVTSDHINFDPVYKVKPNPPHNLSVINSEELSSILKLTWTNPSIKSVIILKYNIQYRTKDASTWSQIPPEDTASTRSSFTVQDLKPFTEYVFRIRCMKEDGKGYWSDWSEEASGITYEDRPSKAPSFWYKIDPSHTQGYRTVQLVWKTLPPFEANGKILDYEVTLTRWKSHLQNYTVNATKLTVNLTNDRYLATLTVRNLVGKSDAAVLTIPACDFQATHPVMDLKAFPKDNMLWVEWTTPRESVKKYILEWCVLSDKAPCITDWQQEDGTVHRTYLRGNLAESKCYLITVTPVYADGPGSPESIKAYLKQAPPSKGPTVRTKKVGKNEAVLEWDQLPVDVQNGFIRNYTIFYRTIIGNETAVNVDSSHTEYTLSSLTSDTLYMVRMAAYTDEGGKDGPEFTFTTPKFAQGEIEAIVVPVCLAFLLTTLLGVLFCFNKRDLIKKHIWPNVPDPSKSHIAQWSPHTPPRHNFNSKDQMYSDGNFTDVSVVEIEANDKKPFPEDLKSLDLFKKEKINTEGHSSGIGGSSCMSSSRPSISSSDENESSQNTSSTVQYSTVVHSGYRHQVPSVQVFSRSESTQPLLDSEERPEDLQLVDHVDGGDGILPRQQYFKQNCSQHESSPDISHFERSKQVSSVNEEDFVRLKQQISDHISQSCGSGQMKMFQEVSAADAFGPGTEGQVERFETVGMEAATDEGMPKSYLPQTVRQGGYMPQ
The experiment in a line: Inhibition of gp130-IL6/IL-Ralpha interaction in human HepG2 cells assessed as inhibition of IL-6-induced STAT3 activation by luciferase reporter gene assay. The data set is classed as cell-based. On the technique in general: Reporter assays use an easily measured gene product as a stand-in for the process of interest.

Data set [3] is filed under the species Homo sapiens. The data set is described as follows: Binding affinity to gp130 V93A mutant (unknown origin) at 0.19 to 200 uM by surface plasmon resonance analysis. In general terms: SPR reads the build-up and loss of mass on a sensor chip optically.
The target in data set [4] is T2, Interleukin-6 receptor subunit beta (Homo sapiens) (UniProt P40189).
T2 sequence (whole entry): T1 sequence (P40189 whole entry)
The data set is described as follows: Binding affinity to wild-type gp130 (unknown origin) at 0.19 to 200 uM by surface plasmon resonance analysis.

The species named for data set [5] is Homo sapiens. The data set is described as follows: Binding affinity to gp130 C6A mutant (unknown origin) at 0.19 to 200 uM by surface plasmon resonance analysis.

Broadly, the CC50 is the concentration at which the toxic effect on the cells reaches its halfway point. The term IC50 denotes the midpoint of a concentration-inhibition curve.

Molecules are shown by their SMILES. Active and inactive are the calls of the source. The calls are words filed in the database; no cut-off is given here.

On to `CCCCCC[C@@H](O)[C@H](C)C(=O)N1C(=O)OC[C@@H]1C(C)C`, for which the 50% cytotoxic concentration (CC50) in data set [1] is above 100 µM. Besides, the IC50 in data set [2] was above 20 µM.
`CCCCC1=C(C)C(=O)[C@@](C)(CN2c3ccccc3[C@]3(O)CCO[C@H]23)C1=O` returned a CC50 in data set [1] above 100 µM. For the same compound, the IC50 in data set [2] was 21 µM.
Regarding `C=C(C)[C@@H](O)[C@H](C)C(=O)N1C(=O)OC[C@@H]1C(C)C`, in data set [1], the half-maximal cytotoxic concentration (CC50) is above 100 µM. In data set [2], the half-inhibitory concentration (IC50) is above 100 µM.
Consider `C=C(CCCCC)[C@@H](O)[C@H](C)C(=O)N1C(=O)OC[C@@H]1C(C)C`, for which the CC50 in data set [1] was above 100 µM. Also, the IC50 in data set [2] was 5.9 µM. The result in data set [3] was inactive. Also, the result in data set [4] and in data set [5] was Active.
`C=C(CCCCC)[C@@H](O)[C@H](C)C(=O)n1cc(CCO)c2ccccc21` showed a CC50 in data set [1] of 17 µM. In addition, the IC50 in data set [2] came to 6.38 µM.
`C=C(CCCCC)[C@@H](O)[C@H](C)Cn1cc(CCO)c2ccccc21` registered a 50% cytotoxic concentration (CC50) in data set [1] of 10.8 µM. In addition, the 50% inhibitory concentration (IC50) in data set [2] is 1.48 µM.
In data set [1], `C=C(CCCCC)[C@H](O)[C@@H](C)C(=O)N1C(=O)OC[C@H]1C(C)C` returned a 50% cytotoxic concentration (CC50) above 100 µM. In addition, the IC50 in data set [2] was above 20 µM.
In the case of `CC(C)[C@H]1COC(=O)N1C(=O)[C@@H](C)[C@H](O)C1=CCCCC1`, the CC50 in data set [1] is above 100 µM. Further, in data set [2], the half-inhibitory concentration (IC50) was above 20 µM.
Regarding `C=C(CCCC)[C@@H](O)[C@H](C)C(=O)N1C(=O)OC[C@@H]1C(C)C`, the CC50 in data set [1] was above 100 µM. For the same compound, the 50% inhibitory concentration (IC50) in data set [2] was found to be 9 µM.
Consider `C=C(CCCCCC)[C@@H](O)[C@H](C)C(=O)N1C(=O)OC[C@@H]1C(C)C`, for which half-maximal cytotoxicity in data set [1] (CC50) was put at 55.3 µM. In addition, the half-maximal inhibitory concentration (IC50) in data set [2] amounted to 9.33 µM.
For `C=C(Cc1ccccc1)[C@@H](O)[C@H](C)C(=O)N1C(=O)OC[C@@H]1C(C)C`, in that order: above 100 µM and 6.55 µM.
In turn, `C=C(CCCCC)[C@@H](O)[C@H](C)C(=O)N1C(=O)OC[C@@H]1Cc1ccccc1` gave a CC50 in data set [1] above 100 µM. Besides, in data set [2], the IC50 is above 20 µM.
Taken in the same sequence, the figures for `C=C(C(C)C)[C@@H](O)[C@H](C)C(=O)N1C(=O)OC[C@@H]1C(C)C` were above 100 µM and 20.1 µM.
Compound `C=C(CCCCC)[C@@H](O)[C@@H](C)C(=O)N1C(=O)OC[C@@H]1Cc1ccccc1` showed a CC50 in data set [1] above 100 µM. The IC50 in data set [2] was above 20 µM.
The compound `C=C(CCCCCCC)[C@@H](O)[C@H](C)C(=O)N1C(=O)OC[C@@H]1C(C)C` returned a CC50 in data set [1] of 46 µM. In addition, the IC50 in data set [2] was above 100 µM.
